Read-outs that look alike come from different tables or passages of the source. Each block holds one compound with its values, some of them ahead of it.
Columns and labels:
[1] = cited from earlier work
clinical = settings: both, human, in vivo
[2] = for θ2 (factor associated with the covariate) / θ1 (typical value of V/F) / θ1 (typical value of ka): univariate model
Plasma concentrations = assay type: in vivo; settings: human, oral, ritonavir AUC0–24, median, external dataset, 18 HIV-infected patients, atazanavir/ritonavir/saquinavir 200/100/1600 mg once daily
[3] = final model, 300/100 mg once daily
[4] = influence of Black-African ethnicity on V/F: V = θ1 * θ2^AFR
[5] = influence of Black-African ethnicity on ka: ka = θ1 * θ2^AFR
[6] = influence of HIV status on V/F: V = θ1 * θ2^HIV
[7] = influence of HIV status on ka: ka = θ1 * θ2^HIV
[8] = influence of Hispanic ethnicity on ka: ka = θ1 * θ2^HSP
[9] = influence of RTV AUC0–24 on V/F: V = θ1 * (RTV/7.52)^θ2
[10] = influence of SQV on V/F: V = θ1 * θ2^SQV
[11] = influence of TDF on V/F: V = θ1 * θ2^TDF
[12] = influence of TDF on ka: ka = θ1 * θ2^TDF
[13] = influence of sex on V/F: V = θ1 * θ2^SEX
[14] = influence of weight on V/F: V = θ1 + θ2 * (WT − 76.2)

- Vd/F (clinical): 103 L
- IIV CL/F (inter-individual variability) ([2]; basic model): 48%
- IIV V/F (inter-individual variability) ([2]; basic model): 48%
- IIV ka (inter-individual variability) ([2]; basic model): 154%
- CL/F (apparent oral clearance) ([2]; basic model (no covariates), 300/100 mg once daily): 7.6 L/h
- mean individual predicted CL/F ([2]; females): 6.40 L/h
- IIV CL/F (inter-individual variability) [2, 3]: 29%
- IIV V/F (inter-individual variability) [2, 3]: 48%
- IIV ka (inter-individual variability) [2, 3]: 154%
- reduction of variability of CL/F by inclusion of ritonavir AUC0–24 as covariate ([2]; final versus basic model): 19%
- mean individual predicted CL/F ([2]; males): 8.99 L/h
- lower mean individual predicted CL/F in females compared with males ([2]; not significant): ~29%
- θ2 (factor associated with the covariate) ([2]; influence of Black-African ethnicity on CL/F: CL = θ1 * θ2^AFR): 0.91
- θ1 (typical value of V/F) [2, 4]: 100
- θ2 (factor associated with the covariate) [2, 4]: 1.23
- θ1 (typical value of ka) [2, 5]: 3.28
- θ2 (factor associated with the covariate) [2, 5]: 1.44
- θ2 (factor associated with the covariate) ([2]; influence of HIV status on CL/F: CL = θ1 * θ2^HIV): 0.80
- θ1 (typical value of V/F) [2, 6]: 118
- θ2 (factor associated with the covariate) [2, 6]: 0.81
- θ1 (typical value of ka) [2, 7]: 2.77
- θ2 (factor associated with the covariate) [2, 7]: 1.42
- θ2 (factor associated with the covariate) ([2]; influence of Hispanic ethnicity on CL/F: CL = θ1 * θ2^HSP): 1.60
- θ1 (typical value of ka) [2, 8]: 2.81
- θ2 (factor associated with the covariate) [2, 8]: 4.42
- θ2 (factor associated with the covariate) ([2]; influence of RTV AUC0–24 on CL/F: CL = θ1 * (RTV/7.52)^θ2): −0.84
- θ1 (typical value of V/F) [2, 9]: 104
- θ2 (factor associated with the covariate) [2, 9]: −0.50
- θ2 (factor associated with the covariate) ([2]; influence of SQV (1600 mg once daily) on CL/F: CL = θ1 * θ2^SQV): 0.67
- θ1 (typical value of V/F) [2, 10]: 123
- θ2 (factor associated with the covariate) [2, 10]: 0.64
- θ2 (factor associated with the covariate) ([2]; influence of TDF (300 mg once daily) on CL/F: CL = θ1 * θ2^TDF): 0.83
- θ1 (typical value of V/F) [2, 11]: 108
- θ2 (factor associated with the covariate) [2, 11]: 0.71
- θ1 (typical value of ka) [2, 12]: 3.43
- θ2 (factor associated with the covariate) [2, 12]: 1.10
- θ2 (factor associated with the covariate) ([2]; influence of sex on CL/F: CL = θ1 * θ2^SEX): 0.77
- θ1 (typical value of V/F) [2, 13]: 98.7
- θ2 (factor associated with the covariate) [2, 13]: 1.26
- θ2 (factor associated with the covariate) ([2]; influence of weight on CL/F: CL = θ1 + θ2 * (WT − 76.2)): 0.13
- θ1 (typical value of V/F) [2, 14]: 105
- θ2 (factor associated with the covariate) [2, 14]: 1.26
Structure (SMILES): COC(=O)N[C@H](C(=O)N[C@@H](Cc1ccccc1)[C@@H](O)CN(Cc1ccc(-c2ccccn2)cc1)NC(=O)[C@@H](NC(=O)OC)C(C)(C)C)C(C)(C)C [atazanavir, Atazanavir]
- AUC0–24 lower in HIV patients compared with healthy individuals [1]: ~20%
- minimum concentrations lower in HIV patients compared with healthy individuals [1]: ~50%
- peak concentrations lower in HIV patients compared with healthy individuals [1]: ~30%
- half-life ([1]; population analysis by Colombo et al.): 8.8 h

- AUC(0-t) (Plasma concentrations): 9060 ng·h/mL
Structure (SMILES): CC(C)c1nc(CN(C)C(=O)N[C@H](C(=O)N[C@@H](Cc2ccccc2)C[C@H](O)[C@H](Cc2ccccc2)NC(=O)OCc2cncs2)C(C)C)cs1 [ritonavir]

— article PMC2680345 (Journal of Antimicrobial Chemotherapy, 2009)
